# Measured values: patent publication US6410054B1, “Immediate release eplerenone compositions” (G. D. Searle & Co., priority 1998, dated 2002)
# Columns and labels:
# aldosterone receptors [1] = molecular target: T1, aldosterone receptors (Homo sapiens, UniProt P08235); assay: Single dose study: antialdosterone activity, urinary sodium and potassium after fludrocortisone; assay type: in vivo, humans; details: 50 mg dose
# T1 construct: endogenous in cells; host or cells: healthy male human subjects (in vivo)
# T1 sequence (P08235 1-984): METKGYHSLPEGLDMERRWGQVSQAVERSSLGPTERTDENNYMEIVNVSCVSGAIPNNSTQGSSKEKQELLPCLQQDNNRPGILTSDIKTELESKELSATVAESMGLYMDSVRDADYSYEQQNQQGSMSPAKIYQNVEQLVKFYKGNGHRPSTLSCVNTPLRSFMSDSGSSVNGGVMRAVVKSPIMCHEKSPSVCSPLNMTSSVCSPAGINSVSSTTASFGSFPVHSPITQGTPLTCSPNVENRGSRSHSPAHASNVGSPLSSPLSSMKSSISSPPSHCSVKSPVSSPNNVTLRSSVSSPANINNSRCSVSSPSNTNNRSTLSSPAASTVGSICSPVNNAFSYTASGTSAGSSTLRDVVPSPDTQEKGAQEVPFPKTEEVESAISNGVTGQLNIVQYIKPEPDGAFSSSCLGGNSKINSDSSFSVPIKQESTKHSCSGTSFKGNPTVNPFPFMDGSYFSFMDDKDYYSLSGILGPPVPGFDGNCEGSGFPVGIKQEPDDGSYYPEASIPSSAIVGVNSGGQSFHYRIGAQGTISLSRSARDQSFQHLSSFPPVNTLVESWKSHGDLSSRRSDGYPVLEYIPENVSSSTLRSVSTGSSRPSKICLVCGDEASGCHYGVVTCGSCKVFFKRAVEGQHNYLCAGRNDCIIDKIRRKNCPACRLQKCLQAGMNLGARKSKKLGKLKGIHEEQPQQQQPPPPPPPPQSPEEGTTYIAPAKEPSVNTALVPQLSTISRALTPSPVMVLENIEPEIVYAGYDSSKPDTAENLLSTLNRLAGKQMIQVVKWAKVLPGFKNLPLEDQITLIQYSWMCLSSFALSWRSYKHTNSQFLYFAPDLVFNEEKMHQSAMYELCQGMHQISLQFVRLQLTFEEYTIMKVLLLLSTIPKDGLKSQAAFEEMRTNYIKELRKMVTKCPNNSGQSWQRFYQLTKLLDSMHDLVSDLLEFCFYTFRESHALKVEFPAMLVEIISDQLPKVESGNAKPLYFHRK
# Description: Antialdosterone activity was determined based on urine levels of sodium and potassium following repeated administration of fludrocortisone. Safety was determined on the basis of laboratory tests, vital signs, and the occurrence and types of adverse events.
# (§1) The subjects, who underwent a ten hour food fast prior to administration of the dose, received a single oral dose of one of the study medications together with about 180 mL of water at 0800 hours. […] Each dose of fludrocortisone was administered with 150 mL of water except for the 1.0 mg dose which was administered with 200 mL of water.
# (§2) The plasma samples collected from subjects dosed with eplerenone were assayed for concentrations of eplerenone and the open lactone ring form of eplerenone. […] A subset of plasma samples was also assayed for testosterone levels. The urine collected was analyzed to determine concentrations and amounts of eplerenone and the open lactone ring form of eplerenone, the amount of sodium and potassium excreted, and the urinary log10 (sodium/potassium) ratio.
# renin and aldosterone = assay: Treatment of hypertension study: plasma renin and serum aldosterone; assay type: in vivo, humans
# Description: The safety and efficacy of a range of doses of eplerenone in the treatment of hypertension relative to placebo were evaluated in a multi-center, randomized, double-blind, placebo-lead-in, parallel group study. […] Four hundred and seventeen patients were randomized to one of eight treatments: (i) placebo BID; […] (iv) eplerenone 400 mg QD; (v) eplerenone 25 mg BID; […] The primary efficacy variable was the change in cuff diastolic blood pressure (ADBP; sitting) measured at trough plasma levels after eight weeks of double blind treatment. The secondary variables measured were the change in trough cuff systolic blood pressure (ΔSBP; sitting), change in 24 hour mean diastolic blood pressure (ΔDBP), and change in 24 hour mean systolic blood pressure (ΔSBP). […] Changes in plasma renin and serum aldosterone after eight weeks of dosing were also analyzed as secondary measures of efficacy.
# blood pressure = assay: Treatment of hypertension study: blood pressure; assay type: in vivo, humans; details: 50 mg BID; eight weeks
# Description: The safety and efficacy of a range of doses of eplerenone in the treatment of hypertension relative to placebo were evaluated in a multi-center, randomized, double-blind, placebo-lead-in, parallel group study. […] The primary efficacy variable was the change in cuff diastolic blood pressure (ADBP; sitting) measured at trough plasma levels after eight weeks of double blind treatment. The secondary variables measured were the change in trough cuff systolic blood pressure (ΔSBP; sitting), change in 24 hour mean diastolic blood pressure (ΔDBP), and change in 24 hour mean systolic blood pressure (ΔSBP). The primary and secondary efficacy variables were analyzed to compare BID versus QD dosing regimens for each eplerenone dose group, and both eplerenone and spironolactone versus placebo. Changes in plasma renin and serum aldosterone after eight weeks of dosing were also analyzed as secondary measures of efficacy.
# The specific pharmaceutical compositions of each eplerenone capsule are reported in Examples 5, 6, 7 and 8. The placebo was a conventional capsule containing lactose.
# aldosterone receptors [2] = molecular target: T1, aldosterone receptors; assay: Multiple dose study: antialdosterone activity, urinary log10 (sodium/potassium); assay type: in vivo, humans; details: multiple dose administration
# Description: Multiple oral dose tolerability and the pharmacokinetics of several dosages of eplerenone were evaluated in a double-blind, randomized, placebo-controlled, rising oral dose, sequential panel study of 40 healthy male subjects (five groups of eight subjects). The study medication was administered in three sequential dose panels, with each panel including eplerenone, spironolactone and placebo. […] The 100 mg and 200 mg dose capsules corresponded to those described in Examples 7 and 8, respectively. […] Antialdosterone activity was determined following a fludrocortisone challenge on Days 12-13.
# [3] = Single dose study: plasma pharmacokinetics of eplerenone, open lactone ring form, spironolactone
# Description: The pharmacokinetics, safety and antialdosterone activity of single 10, 50, 100, 300 and 1000 mg oral doses of eplerenone were evaluated in a single-center, randomized, double-blind, placebo-controlled study.
# The study employed seven parallel dose groups of eight healthy male humans.
# The eplerenone capsules administered corresponded to the capsules (or combinations of the capsules) disclosed in Examples 4, 5, 7 and 8 above. The placebo was a conventional capsule containing lactose. […] The fludrocortisone used in the study consisted of commercially available fludrocortisone tablets (Florinef®, Squibb BV).
# as §1, §2
smiles,measurement,setting,value
"CC(=O)S[C@@H]1CC2=CC(=O)CC[C@]2(C)[C@H]2CC[C@@]3(C)[C@@H](CC[C@@]34CCC(=O)O4)[C@H]12 [spironolactone, Spironolactone, reference compound]",Urinary Potassium Excretion,aldosterone receptors [1]; 0 to 2 hours,7.5 mmol
same,Urinary Sodium Excretion,aldosterone receptors [1]; 0 to 2 hours,4.1 mmol
same,Urinary Potassium Excretion,aldosterone receptors [1]; 2 to 4 hours,11.8 mmol
same,Urinary Sodium Excretion,aldosterone receptors [1]; 2 to 4 hours,8.5 mmol
same,Urinary Potassium Excretion,aldosterone receptors [1]; 4 to 6 hours,10.2 mmol
same,Urinary Sodium Excretion,aldosterone receptors [1]; 4 to 6 hours,9.4 mmol
same,Urinary Potassium Excretion,aldosterone receptors [1]; 6 to 8 hours,13.3 mmol
same,Urinary Sodium Excretion,aldosterone receptors [1]; 6 to 8 hours,14.8 mmol
same,Urinary Potassium Excretion,aldosterone receptors [1]; 8 to 10 hours,17.9 mmol
same,Urinary Sodium Excretion,aldosterone receptors [1]; 8 to 10 hours,13.4 mmol
same,Urinary Potassium Excretion,aldosterone receptors [1]; 10 to 12 hours,12.5 mmol
same,Urinary Sodium Excretion,aldosterone receptors [1]; 10 to 12 hours,8.4 mmol
same,Urinary Potassium Excretion,aldosterone receptors [1]; 12 to 14 hours,20.6 mmol
same,Urinary Sodium Excretion,aldosterone receptors [1]; 12 to 14 hours,11.5 mmol
same,Urinary Potassium Excretion,aldosterone receptors [1]; 14 to 16 hours,11.4 mmol
same,Urinary Sodium Excretion,aldosterone receptors [1]; 14 to 16 hours,5.9 mmol
same,Urinary Potassium Excretion,aldosterone receptors [1]; 16 to 24 hours,27.9 mmol
same,Urinary Sodium Excretion,aldosterone receptors [1]; 16 to 24 hours,11.8 mmol
same,Urinary Potassium Excretion,aldosterone receptors [1]; −9 to 0 hours,26.9 mmol
same,Urinary Sodium Excretion,aldosterone receptors [1]; −9 to 0 hours,29.1 mmol
same,Plasma Renin Active Mean Change From Baseline,renin and aldosterone; 50 mg BID,13.3 mU/L
same,Serum Aldosterone Mean Change From Baseline,renin and aldosterone; 50 mg BID,19.2 ng/dL
same,aldosterone compared to placebo,renin and aldosterone; eight weeks of dosing,increases
same,total and active renin levels,renin and aldosterone; eight weeks of dosing,increases
same,24 hour mean ΔDBP,blood pressure,−8.9 mmHg
same,24 hour mean ΔSBP,blood pressure,−15.7 mmHg
same,Primary Efficacy Variable: ΔDBP at trough (sitting),blood pressure,−9.5 mmHg
same,ΔSBP at trough (sitting),blood pressure,−17.6 mmHg
same,urinary log10 (sodium/potassium) values,aldosterone receptors [2],no sustained increase
same,Plasma Concentration Of Spironolactone,"[3]; 50 mg single oral dose, -0.25 h (predose)",0 µg/mL
same,concentration at 0.5 h,"[3]; male, human, plasma, po, 50 mg",0.0105 µg/mL
same,concentration at 1 h,"[3]; male, human, plasma, po, 50 mg",0.0236 µg/mL
same,concentration at 2 h,"[3]; male, human, plasma, po, 50 mg",0.0144 µg/mL
same,concentration at 3 h,"[3]; male, human, plasma, po, 50 mg",0.0143 µg/mL
same,concentration at 4 h,"[3]; male, human, plasma, po, 50 mg",0.0048 µg/mL
same,concentration at 6 h,"[3]; male, human, plasma, po, 50 mg",0 µg/mL
same,concentration at 8 h,"[3]; male, human, plasma, po, 50 mg",0 µg/mL
same,concentration at 12 h,"[3]; male, human, plasma, po, 50 mg",0 µg/mL
same,concentration at 16 h,"[3]; male, human, plasma, po, 50 mg",0 µg/mL
same,concentration at 24 h,"[3]; male, human, plasma, po, 50 mg",0 µg/mL
same,concentration at 28 h,"[3]; male, human, plasma, po, 50 mg",0 µg/mL
same,concentration at 32 h,"[3]; male, human, plasma, po, 50 mg",0 µg/mL
same,concentration at 48 h,"[3]; male, human, plasma, po, 50 mg",0 µg/mL
same,concentration at 72 h,"[3]; male, human, plasma, po, 50 mg",0 µg/mL
same,concentration at 96 h,"[3]; male, human, plasma, po, 50 mg",0 µg/mL
